# From ChEMBL document CHEMBL1777743, “Macrolactin W, a new antibacterial macrolide from a marine Bacillus sp” (2011)
# Calls of active or inactive are those of the source. The calls are words filed in the database; no cut-off is given here.
# Experiments:
# Bacillus subtilis = experiment: Antibacterial activity against Bacillus subtilis KCTC 1021 after 18 hrs by serial dilution technique; type: functional; details: KCTC 1021, 18 h
# Staphylococcus aureus = experiment: Antibacterial activity against Staphylococcus aureus KCTC 1916 after 18 hrs by serial dilution technique; type: functional; details: KCTC 1916, 18 h
# Escherichia coli = experiment: Antibacterial activity against Escherichia coli KCTC 1923 after 18 hrs by serial dilution technique; type: functional; details: KCTC 1923, 18 h
# Pseudomonas aeruginosa = experiment: Antibacterial activity against Pseudomonas aeruginosa KCTC 2592 after 18 hrs by serial dilution technique; type: functional; details: KCTC 2592, 18 h
# ACHN = experiment: Cytotoxicity against human ACHN at 10 ug/ml; type: functional, cell-based
# HCT-15 = experiment: Cytotoxicity against human HCT15 at 10 ug/ml; type: functional, cell-based
# MDA-MB-231 = experiment: Cytotoxicity against human MDA-MB-231 at 10 ug/ml; type: functional, cell-based
# NCI-H23 = experiment: Cytotoxicity against human NCI-H23 at 10 ug/ml; type: functional, cell-based
# NUGC-3 = experiment: Cytotoxicity against human NUGC3 at 10 ug/ml; type: functional, cell-based
# PC-3 = experiment: Cytotoxicity against human PC3 at 10 ug/ml; type: functional, cell-based
smiles,measurement,setting,value
C[C@H]1CCC/C=C\C=C\[C@H](O)C[C@@H](O)C/C=C\C=C\[C@@H](OC(=O)CCC(=O)O[C@H]2O[C@@H](CO)[C@H](O)[C@@H](O)[C@@H]2O)C/C=C/C=C\C(=O)O1 [MACROLACTIN W],MIC,Bacillus subtilis,64 mg/L
same,MIC,Staphylococcus aureus,64 mg/L
same,MIC,Escherichia coli,64 mg/L
same,MIC,Pseudomonas aeruginosa,64 mg/L
same,Activity,ACHN,inactive
same,Activity,HCT-15,inactive
same,Activity,MDA-MB-231,inactive
same,Activity,NCI-H23,inactive
same,Activity,NUGC-3,inactive
same,Activity,PC-3,inactive
